# Several values for one entry are separate records, joined by “and”; a condition that tells them apart may be missing. Identical values can stand only once. Entries after “also recorded” stand apart in the source; their conditions may differ.
# Legend:
# [1] = system: dopaminergic neurons in the VTA; assay: Slice electrophysiology, spontaneous firing rate in the ventral tegmental area (current clamp); assay type: cell-based, mouse; details: for spike frequency F of dopaminergic neurons: bath application 10 μM
# Procedure: Horozontal slices (250 μm thick, VT1000 vibratome, Leica) of the midbrain were prepared from TAAR1 knock-out and littermate wild-type mice 25-60 days of age. Slices were cooled in artificial cerebrospinal fluid (ACSF) containing in mM: 119 NaCl, 2.5 KCl, 1.3 MgCl2, 2.5 CaCl2, 1.0 NaH2PO4, 26.2 NaHCO3 and 11 glucose. Slices were continuously bubbled with 95% O2 and 5% CO2 and transferred after 1 h to the recording chamber superfused (1.5 ml/min) with ACSF at 32-34° C. The VTA was identified as the region medial to the medial terminal nucleus of the accessory optical tract. Visualized whole-cell current-clamp recording techniques were used to measure the spontaneous firing rate and holding currents of neurons. […] Dopaminergic neurons were identified by a large Ih current. The internal solution contained in mM: 140 potassium gluconate, 4 NaCl, 2 MgCl2, 1.1 EGTA, 5 HEPES, 2 Na2ATP, 5 sodium creatine phosphate and 0.6 Na2GTP; the pH was adjusted to 7.3 with KOH. Data were obtained with an Axopatch 200B (Axon Instruments, Union City, Calif., USA), filtered at 2 kHz and digitized at 10 kHz, acquired and analyzed with pClamp9 (Axon Instruments, Union City, Calif., USA). Values are expressed as mean±sem. For statistical comparisons we used the Kolmogorov-Smirnov test. The level of significance was set at P=0.05.
# [2] = system: TAAR1^+/+ and TAAR1^LacZ/LacZ mice; assay: Locomotor activity after d-amphetamine challenge (Digiscan activity monitor); assay type: in vivo, mouse; details: 2.5 mg/kg i.p.
# Procedure: Locomotor activity. A computerized Digiscan 16 Animal Activity Monitoring System (Omnitech Electronics, Colombus, Ohio) was used to quantitate spontaneous locomotor activity. Data were obtained simultaneously from eight Digiscan activity chambers placed in a soundproof room with a 12 hr light/dark cycle. All tests were performed during the light phase (6 a.m. to 6 p.m.). Each activity monitor consisted of a Plexiglas box (20×20×30.5 cm) with sawdust bedding on the floor surrounded by invisible horizontal and vertical infrared sensor beams. The cages were connected to a Digiscan Analyzer linked to a PC that constantly collected the beam status information. With this system, different behavioral parameters could be measured, such as horizontal and vertical activity, total distance travelled (in cm), and stereotypies. The mice were tested via a pseudo-Latin squares design […] with at least a 10-day interval between two consecutive test sessions. […] Locomotor activity was recorded for 90 min starting immediately after the mice were placed in the cages.
# Statistics. Behavioral observations were recorded as mean values SE and analyzed with an unpaired t test. Locomotor activity data (total distance) were analyzed with a two-factor (Genotype and Dose) ANOVA with repeated measures. […]
# [3] = system: TAAR1^+/+ and TAAR1^LacZ/LacZ mice; assay: In vivo microdialysis of extracellular biogenic amines in the striatum after d-amphetamine; set-up: species or system mouse
# Procedure: Four months old male mice were used for these experiments. The procedures used for the experiments described in this report received prior approval from the City of Basel Cantonal Animal Protection Committee based on adherence to federal and local regulations on animal maintenance and testing.
# Forty-five minutes before anesthesia mice received subcutaneously 0.075 mg/kg of buprenorfine. Mice were then anesthetized with isoflurane and placed in a stereotaxic device equipped with dual manipulators arms and an anesthetic mask. Anesthesia was maintained with isoflurane 0.8-1.2% (v/v; support gas oxygen/air, 2:1). The head was shaved and the skin was cut along the midline to expose the skull. A small bore hole was made in the skull to allow the stereotaxical insertion of the microdialysis probe (vertical probe carrying a 2 mm polyacrilonitrile dialysis membrane; Brains On-line, Groningen, The Netherlands) in the striatum (coordinates: A 0.9 mm, L-1.8 mm, V-4.6 mm). The probe was cemented into place using binary dental cement. Once the cement was firm, the wound was closed with silk thread for suture (Silkam) the animal was removed from the stereotaxic instrument and returned to its cage. At the end of the surgery and 24 hrs later mice were treated with Meloxicam 1 mg/kg sc. The body weight of the animals was measured before the surgery and in the following days to monitor the recovery of the animal from surgery.
# All microdialysis experiments were carried out 3-4 days after surgery in awake, freely moving mice. The day of the experiment, the inlet of the implanted dialysis probe was connected to a micro-perfusion pump (CMA/Microdialysis, Sweden) and the outlet was connected to a fraction collector. The microdialysis probe was then perfused with Ringer solution (NaCl 147 mM, KCl 3 mM, CaCl2 1.2 mM, MgC12 1.2 mM) at a constant flow rate of 1.5 μL/min and […] Four samples of dialysates were collected before pharmacological treatment to determine the baseline levels of biogenic amines and their metabolites. Mice were then treated intraperitoneally with 2.5 mg/kg of amphetamine and dialysate samples collected for further 2.5 hrs. Dialysate samples were stored frozen at −80° C. until analysis.
# Frozen dialysate samples were shipped in dry ice to Brains On-Line for assay of monoamines and their metabolites. The concentrations of dopamine, DOPAC, serotonin, 5-HIAA and noradrenaline were measured by use an HPLC equipped with an electrochemical detector according to the procedure of van der Vegt et al. (2003).
# Concentrations of norepinephrine, dopamine, and serotonin were determined within the same samples by HPLC separation and electrochemical detection. Samples were split into two aliquots; one used for simultaneous analysis of norepinephrine and dopamine, the other for analysis of serotonin.
# Aliquots (20 μL) were injected onto the HPLC column by a refrigerated microsampler system, consisting of a syringe pump (Gilson, model 402), a multi-column injector (Gilson, model 233 XL), and a temperature regulator (Gilson, model 832). Chromatographic separation was performed on a reverse-phase 150×2.1 mm (3 μm) C18 Thermo BDS Hypersil column (Keystone Scientific). The mobile phase (isocratic) consisted of a sodium acetate buffer (4.1 g/L Na acetate) with 2.5% v/v methanol, 150 mg/L Titriplex (EDTA), 150 mg/L 1-octanesulfonic acid, and 150 mg/L tetramethylammonium chloride (pH=4.1 adjusted with glacial acetic acid). Mobile phase was run through the system at a flow rate of 0.35 mL/min by an HPLC pump (Shimadzu, model LC-10AD vp).
# Norepinephrine and dopamine were detected electrochemically using a potentiostate (Antec Leyden, model Intro) fitted with a glassy carbon electrode set at +500 mV vs. Ag/AgCl (Antec Leyden). Data were analyzed by Chromatography Data System (Shimadzu, class-vp) software. Concentrations of monoamines were quantitated by external standard method. […]
# [4] = TAAR1^LacZ/LacZ mice, 2.5 mg/kg i.p.
Compound,"spike frequency F of dopaminergic neurons ([1]; TAAR1^+/+ mice, n=19, control 2.1±0.3 Hz, p<0.0001) [Hz]","spike frequency F of dopaminergic neurons ([1]; TAAR1^LacZ/LacZ mice, n=15, control 16.73±1.15 Hz, p>0.05) [Hz]","effect on firing rate (spike frequency) of dopaminergic neurons, in words ([1]; wild type (TAAR1^+/+) mice)","locomotor activity (total distance moved) after d-amphetamine, compared to wild type littermates ([2]; TAAR1^LacZ/LacZ mice, n=12, 2.5 mg/kg)",locomotor activity (total distance moved) after d-amphetamine injection ([2]; wild type (TAAR1^+/+) mice),"amphetamine-triggered increase in extracellular dopamine, TAAR1^LacZ/LacZ relative to TAAR1^+/+ ([3]; 2.5 mg/kg i.p., n=7-8) [fold]","amphetamine-triggered increase in noradrenaline (norepinephrine), TAAR1^LacZ/LacZ relative to wild type ([3]; 2.5 mg/kg i.p., n=7-8, 2.5 mg/kg)",time until DOPAC levels returned to basal levels ([3]; TAAR1^LacZ/LacZ mice) [min],"increase of extracellular dopamine level over basal [3, 4] [fold]","increase of extracellular norepinephrine level over basal [3, 4] [fold]","increase of extracellular serotonin level [3, 4] [fold]","DOPAC level versus wild-type control ([3]; TAAR1^LacZ/LacZ mice, 45 min after administration)","change of extracellular DOPAC level in response to amphetamine ([3]; both TAAR1^LacZ/LacZ and TAAR1^+/+ mice, 2.5 mg/kg i.p.)","change in levels of the 5-HT metabolite 5-HIAA ([3]; both genotypes, 2.5 mg/kg i.p.)","change of extracellular serotonin level ([3]; wild type (TAAR1^+/+) mice, 2.5 mg/kg i.p., 2.5 mg/kg)"
NCCc1ccc(O)cc1 [p-tyramine],0.63±0.04,16.57±1.35,significant decrease; also recorded: decreases the firing rate,–,–,–,–,–,–,–,–,–,–,–,–
C[C@H](N)Cc1ccccc1 [d-amphetamine],–,–,–,moved significantly more than wild type littermates; also recorded: significantly higher,decreased,2.3,2.3 fold and 2.4 fold,135,11,4.9,2.5,significantly decreased,only a marginal decrease,No significant changes,remained unchanged; also recorded: not in their TAAR1^+/+ littermates

# — US20070074297A1, “TAAR1 knock out animal” (priority 2005, published 2007)
